# Assay results as given in patent US20230106943A1, “ENGINEERED ANTIMICROBIAL PEPTIDES AND USAGE THEREOF” (Peptilogics, Inc., priority 2021, published 2023).
# No end group written: not given here.
# Experiment: Example 4 stability of concentrated solutions: HPLC-UV Assay/RS (method 78917)
# Type: physicochemical
# Experimental: The peptide formulation of SEQ ID NO: 1 dissolved in a saline solution with a pH of 5.0±0.1 was tested for stability under either −20° C. or 40° C. with 75% relative humidity (RH). […]
# [1] = 15.3 mg/mL solution, 40° C. and 75% RH, 1 Month
# [2] = 15.3 mg/mL solution, 40° C. and 75% RH, 2 Month
# [3] = 15.3 mg/mL solution, 40° C. and 75% RH, 3 Month
# [4] = 15.3 mg/mL solution, 40° C. and 75% RH, 6 Month
# [5] = 15.3 mg/mL solution, −20° C., 0 Month
# [6] = 15.3 mg/mL solution, −20° C., 1 Month
# [7] = 15.3 mg/mL solution, −20° C., 2 Month
# [8] = 15.3 mg/mL solution, −20° C., 3 Month
# [9] = 15.3 mg/mL solution, −20° C., 6 Month
# [10] = 15.3 mg/mL solution, −20° C., 9 Month
# [11] = 36.7 mg/mL solution, 40° C. and 75% RH, 1 Month
# [12] = 36.7 mg/mL solution, 40° C. and 75% RH, 2 Month
# [13] = 36.7 mg/mL solution, 40° C. and 75% RH, 3 Month
# [14] = 36.7 mg/mL solution, 40° C. and 75% RH, 6 Month
# [15] = 36.7 mg/mL solution, −20° C., 0 Month
# [16] = 36.7 mg/mL solution, −20° C., 1 Month
substance,measurement,setting,value
RRWVRRVRRVWRRVVRVVRRWVRR-NH2 [SEQ ID NO: 1],HPLC-UV Assay/RS % Assay,[1],96.0%
same,HPLC-UV Assay/RS % Purity,[1],99%
same,HPLC-UV Assay/RS % Total Impurities,[1],1.0%
same,RRT 1.02 Mean % Area,[1],1.0%
same,RRT […] area (Inj-1),[1],0.97%
same,RRT […] area (Inj-2),[1],0.95%
same,SEQ ID NO: 1 % area (Inj-1),[1],99.03%
same,SEQ ID NO: 1 % area (Inj-2),[1],99.05%
same,SEQ ID NO: 1 Mean % Area,[1],99.0%
same,HPLC-UV Assay/RS % Assay,[2],103.8%
same,HPLC-UV Assay/RS % Purity,[2],99%
same,HPLC-UV Assay/RS % Total Impurities,[2],1.4%
same,"HPLC-UV Assay/RS Impurities RRT/%, RRT 1.02",[2],1.02/1.0%
same,"HPLC-UV Assay/RS Impurities RRT/%, RRT 1.08",[2],1.08/0.2%
same,"HPLC-UV Assay/RS Impurities RRT/%, RRT 1.10",[2],1.10/0.2%
same,HPLC-UV Assay/RS % Assay,[3],96.8%
same,HPLC-UV Assay/RS % Purity,[3],99%
same,HPLC-UV Assay/RS % Total Impurities,[3],1.3%
same,"HPLC-UV Assay/RS Impurities RRT/%, RRT 1.02",[3],1.02/1.1%
same,"HPLC-UV Assay/RS Impurities RRT/%, RRT 1.25",[3],1.25/0.2%
same,% assay,[4],97.5%
same,HPLC-UV Assay/RS % Purity,[4],98%
same,HPLC-UV Assay/RS % Total Impurities,[4],2.5%
same,HPLC-UV Assay/RS % Assay,[5],99.8%
same,HPLC-UV Assay/RS % Purity,[5],99.0%
same,HPLC-UV Assay/RS % Total Impurities,[5],1.0%
same,RRT 1.02 Mean % Area,[5],1.0%
same,RRT […] area (Inj-1),[5],1.05%
same,RRT […] area (Inj-2),[5],1.03%
same,SEQ ID NO: 1 % area (Inj-1),[5],98.95%
same,SEQ ID NO: 1 % area (Inj-2),[5],98.97%
same,SEQ ID NO: 1 Mean % Area,[5],99.0%
same,HPLC-UV Assay/RS % Assay,[6],103.4%
same,HPLC-UV Assay/RS % Purity,[6],99%
same,HPLC-UV Assay/RS % Total Impurities,[6],0.9%
same,RRT 1.02 Mean % Area,[6],0.9%
same,RRT […] area (Inj-1),[6],0.88%
same,RRT […] area (Inj-2),[6],0.87%
same,SEQ ID NO: 1 % area (Inj-1),[6],99.12%
same,SEQ ID NO: 1 % area (Inj-2),[6],99.13%
same,SEQ ID NO: 1 Mean % Area,[6],99.1%
same,HPLC-UV Assay/RS % Assay,[7],106.0%
same,HPLC-UV Assay/RS % Purity,[7],99%
same,HPLC-UV Assay/RS % Total Impurities,[7],0.9%
same,"HPLC-UV Assay/RS Impurities RRT/%, RRT 1.02",[7],1.02/0.9%
same,HPLC-UV Assay/RS % Assay,[8],99.7%
same,HPLC-UV Assay/RS % Purity,[8],99%
same,HPLC-UV Assay/RS % Total Impurities,[8],0.9%
same,"HPLC-UV Assay/RS Impurities RRT/%, RRT 1.02",[8],1.02/0.9%
same,HPLC-UV Assay/RS % Assay,[9],102.1%
same,HPLC-UV Assay/RS % Purity,[9],99%
same,HPLC-UV Assay/RS % Total Impurities,[9],0.9%
same,"HPLC-UV Assay/RS Impurities RRT/%, RRT 1.02",[9],1.02/0.9%
same,HPLC-UV Assay/RS % Assay,[10],101.0%
same,HPLC-UV Assay/RS % Purity,[10],100%
same,HPLC-UV Assay/RS % Total Impurities,[10],0.3%
same,"HPLC-UV Assay/RS Impurities RRT/%, RRT 1.01",[10],1.01/0.3%
same,% Purity,[11],99%
same,% Total Impurities,[11],0.9%
same,HPLC-UV % Assay,[11],97.5%
same,RRT 1.02 impurity % area (Inj-1),[11],0.94 % area
same,RRT 1.02 impurity % area (Inj-2),[11],0.91 % area
same,RRT 1.02 impurity Mean % Area,[11],0.9 % Area
same,SEQ ID NO: 1 peak % area (Inj-1),[11],99.06 % area
same,SEQ ID NO: 1 peak % area (Inj-2),[11],99.09 % area
same,SEQ ID NO: 1 peak Mean % Area,[11],99.1 % Area
same,% Purity,[12],99%
same,% Total Impurities,[12],1.2%
same,HPLC-UV % Assay,[12],101.7%
same,% Purity,[13],99%
same,% Total Impurities,[13],1.5%
same,HPLC-UV % Assay,[13],97.3%
same,% Purity,[14],97%
same,% Total Impurities,[14],3.0%
same,HPLC-UV % Assay,[14],94.8%
same,HPLC-UV Assay/RS % Assay,[15],97.9%
same,HPLC-UV Assay/RS % Purity,[15],99.0%
same,HPLC-UV Assay/RS % Total Impurities,[15],1.0%
same,RRT 1.02 Mean % Area,[15],1.0%
same,RRT […] area (Inj-1),[15],1.02%
same,RRT […] area (Inj-2),[15],1.03%
same,SEQ ID NO: 1 % area (Inj-1),[15],98.98%
same,SEQ ID NO: 1 % area (Inj-2),[15],98.97%
same,SEQ ID NO: 1 Mean % Area,[15],99.0%
same,HPLC-UV Assay/RS % Assay,[16],98.6%
same,HPLC-UV Assay/RS % Purity,[16],99%
same,HPLC-UV Assay/RS % Total Impurities,[16],0.9%
same,RRT 1.02 Mean % Area,[16],0.9%
same,RRT […] area (Inj-1),[16],0.87%
same,RRT […] area (Inj-2),[16],0.88%
